According to ChEMBL document CHEMBL1909046, “DrugMatrix in vitro pharmacology data”:

Key:
Calcitonin receptor = target: T1, Calcitonin receptor (Homo sapiens, UniProt P30988); type: cell membranes, Membrane; details: t47d; further: in other assays of this panel Not Active means under 50% inhibition at 10 µM
T1 sequence (P30988 whole entry): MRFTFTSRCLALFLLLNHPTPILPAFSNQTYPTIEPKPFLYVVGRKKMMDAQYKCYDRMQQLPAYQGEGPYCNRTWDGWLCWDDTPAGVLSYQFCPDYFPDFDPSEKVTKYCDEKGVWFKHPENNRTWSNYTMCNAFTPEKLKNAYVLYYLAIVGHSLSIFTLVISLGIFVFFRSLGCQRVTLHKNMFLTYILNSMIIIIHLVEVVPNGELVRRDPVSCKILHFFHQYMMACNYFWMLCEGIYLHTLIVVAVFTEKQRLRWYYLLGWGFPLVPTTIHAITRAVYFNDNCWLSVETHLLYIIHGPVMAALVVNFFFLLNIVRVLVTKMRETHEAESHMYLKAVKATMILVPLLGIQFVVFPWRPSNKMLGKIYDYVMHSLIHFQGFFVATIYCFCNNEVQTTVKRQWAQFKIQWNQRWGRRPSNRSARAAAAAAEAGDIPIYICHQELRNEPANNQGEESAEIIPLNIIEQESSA

[1] = target: C-C chemokine receptor type 5 (Homo sapiens, UniProt P51681); type: cell membranes, HEK293, Membrane; details: hek293; further: in other assays of this panel Not Active means under 50% inhibition at 10 µM
[2] = DRUGMATRIX: GABAA, Chloride Channel, TBOB radioligand binding (ligand: [3H] TBOB); type: cell membranes, Rattus norvegicus, Wistar, Cerebral cortex, Membrane; details: Not Active = under 50% inhibition at 10 µM
[3] = target: cGMP-specific 3',5'-cyclic phosphodiesterase (Homo sapiens, UniProt O76074); assay: DRUGMATRIX: Phosphodiesterase PDE5 enzyme inhibition (substrate: [3H]cGMP + cGMP); type: tissue-based, Platelet; details: platelet; Not Active = under 50% inhibition at 10 µM
[4] = target: Mitogen-activated protein kinase 1 (Homo sapiens, UniProt P28482); assay: DRUGMATRIX: Protein Serine/Threonine Kinase, ERK2 enzyme inhibition (substrate: Myelin Basic Protein); design: species or system Escherichia coli; details: Not Active = under 50% inhibition at 10 µM
[5] = target: Epidermal growth factor receptor (Homo sapiens, UniProt P00533); assay: DRUGMATRIX: Protein Tyrosine Kinase, EGF Receptor enzyme inhibition (substrate: Poly(Glu:Tyr)); type: cell-based, Insect cells; details: insect cells; Not Active = under 50% inhibition at 10 µM
[6] = target: Tyrosine-protein kinase Lck (Homo sapiens, UniProt P06239); assay: DRUGMATRIX: Protein Tyrosine Kinase, LCK enzyme inhibition (substrate: Poly(Glu:Tyr)); type: cell-based, Insect cells; details: insect cells; Not Active = under 50% inhibition at 10 µM
Tyrosine-protein kinase Lck, sequence (P06239 whole entry): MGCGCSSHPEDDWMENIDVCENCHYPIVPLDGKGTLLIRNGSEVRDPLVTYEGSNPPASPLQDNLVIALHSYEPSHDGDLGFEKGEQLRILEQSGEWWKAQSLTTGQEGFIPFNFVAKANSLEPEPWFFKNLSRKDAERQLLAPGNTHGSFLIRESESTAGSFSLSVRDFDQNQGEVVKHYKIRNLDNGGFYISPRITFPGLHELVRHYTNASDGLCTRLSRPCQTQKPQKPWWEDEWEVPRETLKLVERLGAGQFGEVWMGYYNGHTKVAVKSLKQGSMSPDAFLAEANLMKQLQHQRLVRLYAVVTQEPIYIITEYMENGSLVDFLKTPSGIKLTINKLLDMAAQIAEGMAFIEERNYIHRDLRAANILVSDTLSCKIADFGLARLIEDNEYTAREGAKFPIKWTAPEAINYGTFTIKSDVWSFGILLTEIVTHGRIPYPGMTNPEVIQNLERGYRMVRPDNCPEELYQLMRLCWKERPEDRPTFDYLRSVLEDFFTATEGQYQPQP

C-C chemokine receptor type 5, sequence (P51681 whole entry): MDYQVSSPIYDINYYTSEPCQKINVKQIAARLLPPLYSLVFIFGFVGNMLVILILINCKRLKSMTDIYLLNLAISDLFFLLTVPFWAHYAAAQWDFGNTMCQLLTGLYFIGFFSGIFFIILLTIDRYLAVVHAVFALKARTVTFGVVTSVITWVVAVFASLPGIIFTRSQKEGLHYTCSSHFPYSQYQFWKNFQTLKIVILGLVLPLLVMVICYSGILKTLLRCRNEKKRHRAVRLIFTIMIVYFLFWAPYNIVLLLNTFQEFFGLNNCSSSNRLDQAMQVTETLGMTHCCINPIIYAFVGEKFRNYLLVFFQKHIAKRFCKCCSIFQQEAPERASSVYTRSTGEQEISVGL
Mitogen-activated protein kinase 1, sequence (P28482 whole entry): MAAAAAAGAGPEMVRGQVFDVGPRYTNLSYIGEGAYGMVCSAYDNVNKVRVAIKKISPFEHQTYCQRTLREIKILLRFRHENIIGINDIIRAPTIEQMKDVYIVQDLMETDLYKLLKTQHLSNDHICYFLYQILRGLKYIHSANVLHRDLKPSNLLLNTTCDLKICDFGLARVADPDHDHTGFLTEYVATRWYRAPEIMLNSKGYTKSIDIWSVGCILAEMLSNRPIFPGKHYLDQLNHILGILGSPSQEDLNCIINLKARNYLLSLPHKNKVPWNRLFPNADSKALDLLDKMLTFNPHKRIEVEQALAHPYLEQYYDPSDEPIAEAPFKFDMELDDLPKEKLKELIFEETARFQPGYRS

Molecule: OC[C@H]1O[C@@H]2O[C@H]3[C@H](O)[C@@H](O)[C@@H](O[C@H]4[C@H](O)[C@@H](O)[C@@H](O[C@H]5[C@H](O)[C@@H](O)[C@@H](O[C@H]6[C@H](O)[C@@H](O)[C@@H](O[C@H]7[C@H](O)[C@@H](O)[C@@H](O[C@H]1[C@H](O)[C@H]2O)O[C@@H]7CO)O[C@@H]6CO)O[C@@H]5CO)O[C@@H]4CO)O[C@@H]3CO [ALFADEX]
- IC50 (Calcitonin receptor): Not Active
- IC50 [1]: Not Active
- IC50 [2]: Not Active
- Ki [2]: Not Active
- IC50 [3]: Not Active
- IC50 [4]: Not Active
- IC50 [5]: Not Active
- IC50 [6]: Not Active

Molecule: POVIDONE
- IC50 (Calcitonin receptor): Not Active
- Ki (Calcitonin receptor): Not Active
- IC50 [1]: Not Active
- Ki [1]: Not Active
- IC50 [2]: Not Active
- Ki [2]: Not Active
- IC50 [3]: Not Active
- Ki [3]: Not Active
- IC50 [4]: Not Active
- Ki [4]: Not Active
- IC50 [5]: Not Active
- Ki [5]: Not Active
- IC50 [6]: Not Active
- Ki [6]: Not Active

Molecule: c1ccc2c(c1)Nc1ccccc1S2 [PHENOTHIAZINE]
- IC50 (Calcitonin receptor): Not Active
- IC50 [1]: Not Active
- IC50 [2]: Not Active
- Ki [2]: Not Active
- IC50 [3]: Not Active
- IC50 [4]: Not Active
- IC50 [5]: Not Active
- IC50 [6]: Not Active

Molecule: CC[C@H]1OC(=O)[C@H](C)[C@@H](O[C@H]2C[C@@](C)(OC)[C@@H](O)[C@H](C)O2)[C@H](C)[C@@H](O[C@@H]2O[C@H](C)C[C@H](N(C)C)[C@H]2O)[C@](C)(O)C[C@@H](C)C(=O)[C@H](C)[C@@H](O)[C@]1(C)O [ERYTHROMYCIN]
- IC50 (Calcitonin receptor): Not Active
- IC50 [1]: Not Active
- IC50 [2]: Not Active
- Ki [2]: Not Active
- IC50 [3]: Not Active
- IC50 [4]: Not Active
- IC50 [5]: Not Active
- IC50 [6]: Not Active

Molecule: NS(=O)(=O)c1cc(C(=O)O)c(NCc2ccco2)cc1Cl [FUROSEMIDE]
- IC50 (Calcitonin receptor): Not Active
- IC50 [1]: Not Active
- IC50 [2]: Not Active
- Ki [2]: Not Active
- IC50 [3]: Not Active
- IC50 [4]: Not Active
- IC50 [5]: Not Active
- IC50 [6]: Not Active

Molecule: COc1cc([C@@H]2c3cc4c(cc3[C@H](O)[C@H]3COC(=O)[C@H]23)OCO4)cc(OC)c1OC [PODOFILOX]
- IC50 (Calcitonin receptor): Not Active
- IC50 [1]: Not Active
- IC50 [2]: Not Active
- Ki [2]: Not Active
- IC50 [3]: Not Active
- IC50 [4]: Not Active
- IC50 [5]: Not Active
- IC50 [6]: Not Active

Molecule: CC(N)Cc1c[nH]c2ccc(OCc3cccs3)cc12 (stereo not given) [BW-723C86]
- IC50 (Calcitonin receptor): Not Active
- IC50 [1]: Not Active
- IC50 [2]: Not Active
- Ki [2]: Not Active
- IC50 [3]: Not Active
- IC50 [4]: Not Active
- IC50 [5]: Not Active
- IC50 [6]: Not Active

Molecule: O=C(O)COC(=O)Cc1ccccc1Nc1c(Cl)cccc1Cl [ACECLOFENAC]
- IC50 (Calcitonin receptor): Not Active
- IC50 [1]: Not Active
- IC50 [2]: Not Active
- Ki [2]: Not Active
- IC50 [3]: Not Active
- IC50 ([4]; read-out: IC50): 5.93 µM
- IC50 [5]: Not Active
- IC50 [6]: Not Active

Molecule: COC(=O)Nc1nc2ccc(Sc3ccccc3)cc2[nH]1 [FENBENDAZOLE]
- IC50 (Calcitonin receptor): Not Active
- IC50 [1]: Not Active
- IC50 [2]: Not Active
- Ki [2]: Not Active
- IC50 [3]: Not Active
- IC50 [4]: Not Active
- IC50 [5]: Not Active
- IC50 [6]: Not Active

Molecule: Cc1c(N)nc([C@H](CC(N)=O)NC[C@H](N)C(N)=O)nc1C(=O)N[C@H](C(=O)N[C@H](C)[C@@H](O)[C@H](C)C(=O)N[C@H](C(=O)NCCc1nc(-c2nc(C(=O)NCCC[S+](C)C)cs2)cs1)[C@@H](C)O)[C@@H](O[C@@H]1O[C@@H](CO)[C@@H](O)[C@H](O)[C@@H]1O[C@H]1O[C@H](CO)[C@@H](O)[C@H](OC(N)=O)[C@@H]1O)c1c[nH]cn1.[Br-] [BLEOMYCIN A2]
- IC50 (Calcitonin receptor): Not Active
- IC50 [1]: Not Active
- IC50 [2]: Not Active
- Ki [2]: Not Active
- IC50 [3]: Not Active
- IC50 [4]: Not Active
- IC50 [5]: Not Active
- IC50 [6]: Not Active

Molecule: C#C[C@]1(O)CC[C@H]2[C@@H]3CCC4=CC(=O)CC[C@@H]4[C@H]3CC[C@@]21C [NORETHINDRONE]
- IC50 (Calcitonin receptor): Not Active
- IC50 [1]: Not Active
- IC50 [2]: Not Active
- Ki [2]: Not Active
- IC50 [3]: Not Active
- IC50 [4]: Not Active
- IC50 [5]: Not Active
- IC50 [6]: Not Active

Molecule: CC(CN1c2ccccc2Sc2ccccc21)N(C)C (stereo not given) [PROMETHAZINE]
- IC50 (Calcitonin receptor): Not Active
- IC50 [1]: Not Active
- IC50 [2]: Not Active
- Ki [2]: Not Active
- IC50 [3]: Not Active
- IC50 [4]: Not Active
- IC50 [5]: Not Active
- IC50 [6]: Not Active

Molecule: COc1cc(NC(C)CCCN)c2ncccc2c1 (stereo not given) [PRIMAQUINE]
- IC50 (Calcitonin receptor): Not Active
- IC50 [1]: Not Active
- IC50 [2]: Not Active
- Ki [2]: Not Active
- IC50 [3]: Not Active
- IC50 [4]: Not Active
- IC50 [5]: Not Active
- IC50 [6]: Not Active

Molecule: CCCCCCNC(=O)n1cc(F)c(=O)[nH]c1=O [CARMOFUR]
- IC50 (Calcitonin receptor): Not Active
- IC50 [1]: Not Active
- IC50 [2]: Not Active
- Ki [2]: Not Active
- IC50 [3]: Not Active
- IC50 [4]: Not Active
- IC50 [5]: Not Active
- IC50 [6]: Not Active

Molecule: Cc1cc(C(C)(C)C)c(O)c(C)c1CC1=NCCN1 [OXYMETAZOLINE]
- IC50 (Calcitonin receptor): Not Active
- IC50 [1]: Not Active
- IC50 [2]: Not Active
- Ki [2]: Not Active
- IC50 [3]: Not Active
- IC50 [4]: Not Active
- IC50 [5]: Not Active
- IC50 [6]: Not Active

Molecule: O=c1[nH]c2ccccc2c2ccccc12
- IC50 (Calcitonin receptor): Not Active
- IC50 [1]: Not Active
- IC50 [2]: Not Active
- Ki [2]: Not Active
- IC50 [3]: Not Active
- IC50 [4]: Not Active
- IC50 [5]: Not Active
- IC50 [6]: Not Active

Molecule: C=C(Cl)Cl [1,1-DICHLOROETHENE]
- IC50 (Calcitonin receptor): Not Active
- IC50 [1]: Not Active
- IC50 [2]: Not Active
- Ki [2]: Not Active
- IC50 [3]: Not Active
- IC50 [4]: Not Active
- IC50 [5]: Not Active
- IC50 [6]: Not Active

Molecule: CC(=O)[C@]1(O)Cc2c(O)c3c(c(O)c2[C@@H](O[C@H]2C[C@H](N)[C@H](O)[C@H](C)O2)C1)C(=O)c1ccccc1C3=O [IDARUBICIN]
- IC50 (Calcitonin receptor): Not Active
- IC50 [1]: Not Active
- IC50 [2]: Not Active
- Ki [2]: Not Active
- IC50 [3]: Not Active
- IC50 [4]: Not Active
- IC50 [5]: Not Active
- IC50 [6]: Not Active

Molecule: Oc1ccccc1 [PHENOL]
- IC50 (Calcitonin receptor): Not Active
- IC50 [1]: Not Active
- IC50 [2]: Not Active
- Ki [2]: Not Active
- IC50 [3]: Not Active
- IC50 [4]: Not Active
- IC50 [5]: Not Active
- IC50 [6]: Not Active

Molecule: O=C(Nc1ccc(Cl)c(Cl)c1)c1cc(Cl)cc(Cl)c1O [3,3',4',5-TETRACHLOROSALICYLANILIDE]
- IC50 (Calcitonin receptor): Not Active
- IC50 [1]: Not Active
- IC50 [2]: Not Active
- Ki [2]: Not Active
- IC50 [3]: Not Active
- IC50 ([4]; read-out: IC50): 0.886 µM
- IC50 [5]: Not Active
- IC50 [6]: Not Active

Molecule: CC(=O)Nc1ccc2c(c1)Cc1ccccc1-2 [2-ACETYLAMINOFLUORENE]
- IC50 (Calcitonin receptor): Not Active
- IC50 [1]: Not Active
- IC50 [2]: Not Active
- Ki [2]: Not Active
- IC50 [3]: Not Active
- IC50 [4]: Not Active
- IC50 [5]: Not Active
- IC50 [6]: Not Active

Molecule: C[N+](C)(C)CCOC(N)=O.[Cl-] [CARBACHOL]
- IC50 (Calcitonin receptor): Not Active
- IC50 [1]: Not Active
- IC50 [2]: Not Active
- Ki [2]: Not Active
- IC50 [3]: Not Active
- IC50 [4]: Not Active
- IC50 [5]: Not Active
- IC50 [6]: Not Active

Molecule: Oc1ncnc2[nH]ncc12 [ALLOPURINOL]
- IC50 (Calcitonin receptor): Not Active
- IC50 [1]: Not Active
- IC50 [2]: Not Active
- Ki [2]: Not Active
- IC50 [3]: Not Active
- IC50 [4]: Not Active
- IC50 [5]: Not Active
- IC50 [6]: Not Active
